In US20070148660A1, “Treatment of maladaptive substance use with H-ras antagonists” (The Regents of the University of California, priority 2005, published 2007):

How the values were obtained:
[1] = tested on: NR2A subunit of the NMDAR; assay: BS3 cross-linking, surface vs internalized NR2A in hippocampal slices; type: cell-based, mouse
Experimental: (§1) Transverse hippocampal slices ([…]) were prepared from 10- to 12-week-old C57BL/6J mice. Slices were allowed to recover for 90 min in artificial cerebrospinal fluid (aCSF) saturated with 95% O2/5% CO2 containing (in mM): 126 NaCl, 1.2 KCl, 1.2 NaH2PO4, 1.2 MgCl2, 2.4 CaCl2, 18 NaHCO3, and 11 glucose. Following recovery, slices were treated with aCSF (control) or ethanol at room temperature, after which the slices were rinsed in cold aCSF, and used either for cross-linking experiments, for Ras activity assay, or for immunoprecipitation. In experiments using Tat-H-Ras DN or the Tat-peptide, the slices were pretreated with either aCSF (control) or 2 μM Tat-H-Ras DN or Tat-peptide for 2 hrs at room temperature, followed by ethanol treatments.
(§2) Cross-linking was performed as described previously (22), with minor modifications. Following treatment, the slices were placed in cold aCSF in the presence or absence of 2 mg/ml of the cross-linking reagent BS^3 for 45 min at 4° C. while shaking. Slices were then rinsed three times with cold aCSF containing 20 mM Tris (pH 7.6), followed by sonication in cold homogenization buffer (10% SDS, 10 mM EDTA, 100 mM Tris (pH 8.0), and protease and phosphatase inhibitor cocktails). The protein concentration was determined using the BCA assay, followed by SDS-PAGE and Western blot analysis. Data are expressed as ratio of normalized surface expressed or internalized receptors to the total receptor levels.
(§3) Proteins were separated by SDS-PAGE and blotted onto a nitrocellulose membrane. After blocking, the membranes were incubated with the specific primary antibody, followed by horseradish peroxidase-conjugated secondary antibody. Detection was obtained followed by enhanced chemiluminescent reaction (Amersham Biosciences), and processed using the STORM PhosphoImager (Amersham Biosciences). Results were quantified by NIH Image 1.61.

[2] = tested on: NR2A-adaptin β2 association; assay: Co-immunoprecipitation of NR2A and adaptin β2, hippocampal slices; type: cell-based, mouse; settings: 100 mM ethanol, 15 min
Experimental: as §1
The treated slices were homogenized in ice-cold buffer containing 1% deoxycholate, protease and phosphatase inhibitors and (in mM): 250 sucrose, 20 Tris-HCl (pH 7.5), 2 EDTA and 10 EGTA. 500 μg of the protein was diluted with 1× immunoprecipitation buffer (1% Triton X-100 and (in mM): 150 NaCl, 10 Tris HCl (pH 7.4), 1 EDTA, 1 EGTA and 0.2 sodium orthovanadate) and incubated with 5 μg of the appropriate antibody, followed by an overnight incubation at 4° C. with protein G agarose beads. […]
(§4) Proteins were separated by SDS-PAGE and blotted onto a nitrocellulose membrane. […] Results were quantified by NIH Image 1.61.

NR2A = settings: 100 mM ethanol, 15 min, L(-tk) cells NR1+NR2A
Experimental: L(−tk) were cultured on 100 mm plates. When cells reached 75% confluency, they were transfected with 5 μg of PSD95-GFP cDNA using LipofectAMINE PLUS in accordance with the manufacturer's instructions. 24 hrs after transfection, the expression of the NMDAR subunits NR1+NR2A or NR1+NR2B was induced with […] dexamethasone in DMEM containing 10% FBS, and 0.5 mM ketamine as previously described (21). After 3 days of induction, the cross-linking or immunoprecipitation studies were conducted. Homogenates were obtained as described in (17).
as §2, §4

Ras = Ras activity assay (Raf-1-Ras binding domain GST-agarose), hippocampal slices; type: cell-based, mouse; settings: 100 mM ethanol, 15 min, hippocampal slices
Experimental: The treated hippocampal homogenates (250 μg) were incubated with […] of Raf-1-Ras binding domain GST-agarose for 45 min at 4° C. while rotating, as per manufacturer's instructions. […] Results were quantified by NIH Image 1.61.

NMDAR = assay: NMDAR-mediated fEPSPs, hippocampal CA1 field recording; type: cell-based, mouse; settings: bath application of 80 mM ethanol, n=11
Experimental: Electrophysiological recordings were performed in C57BL/6J mice ranging from P21 to P26. Briefly, mice were anesthetized with halothane and decapitated as per University of California, San Francisco animal care guidelines. Horizontal sections of the hippocampus ([…]) were prepared with a vibratome (Leica, Nussloch, Germany). Slices were placed in a holding chamber and allowed to recover for at least 1 hr before being placed in the recording chamber and superfused with aCSF saturated with 95% O2/5% CO2 and containing (in mM): 119 NaCl, 1.6 KCl, 1.0 NaH2PO4, 1.3 MgCl2 (for EPSCs) or 0.01 MgCl2 (for field excitatory postsynaptic potentials (fEPSPs)), 2.5 CaCl2, 26.2 NaHCO3 and 11 glucose. […]
fEPSPs were recorded using a MultiClamp 700A amplifier (Axon Instruments, Union City, Calif.) with […] patch pipettes filled with 1 M NaCl and 25 mM HEPES. To evoke fEPSPs, Schaffer collateral/commissural afferents in hippocampal CA1 region were stimulated with 0.1 Hz pulses using steel bipolar microelectrodes at intensities adjusted to produce an evoked response that was 50% of the maximal recorded fEPSP for each recording. fEPSPs were filtered at 1 kHz, digitized at 10 kHz and collected on-line using with pClamp 9 (Axon Instrument, Union City, Calif.). […]

adaptin β2 with TrkB = settings: 100 mM ethanol, 15 min, hippocampal slices
Experimental: as §1
(§5) The treated slices were homogenized in ice-cold buffer containing 1% deoxycholate, protease and phosphatase inhibitors and (in mM): 250 sucrose, 20 Tris-HCl (pH 7.5), 2 EDTA and 10 EGTA. 500 μg of the protein was diluted with 1× immunoprecipitation buffer (1% Triton X-100 and (in mM): 150 NaCl, 10 Tris HCl (pH 7.4), 1 EDTA, 1 EGTA and 0.2 sodium orthovanadate) and incubated with 5 μg of the appropriate antibody, followed by an overnight incubation at 4° C. with protein G agarose beads. The beads were extensively washed, re-suspended in 2× sample buffer and boiled for 5-10 min. The samples were then subjected to SDS-PAGE followed by Western blotting with the appropriate antibodies.
as §3

[3] = tested on: adaptin β2 with the AMPAR subunit GluR1; settings: 100 mM ethanol, 15 min, hippocampal slices
Experimental: as §1, §5, §3

Src kinase = settings: 100 mM ethanol, 15 min, hippocampal slices
Experimental: as §1, §5, §3

[4] = tested on: GluR1 subunit of the AMPAR; settings: 100 mM ethanol, 15 min, hippocampal slices
Experimental: as §1, §2, §3

NR1 subunit of the NMDAR = settings: 100 mM ethanol, 15 min, hippocampal slices
Experimental: as §1, §2, §3

NR2B subunit = settings: 100 mM ethanol, 15 min, hippocampal slices
Experimental: as §1, §2, §3

For CCO [ethanol], the “change in subcellular localization of NR2A after ethanol washout” value ([1]; 100 mM ethanol 15 min, washed out, 15 min recovery) was “not observed”, the “intracellular level of NR2A” value ([1]; 100 mM ethanol, 15 min, hippocampal slices) was “significant increase” and the “NR2A internalization in Fyn+/+ and Fyn-/- mice” value ([1]; 100 mM ethanol, 15 min, slices from Fyn+/+ and Fyn-/- mice) was “significantly enhanced”. For the same compound, the “internalization of the NR2A subunits in Src+/+ mice” value ([1]; 100 mM ethanol, 15 min, slices from Src+/+ mice) was “significantly increased”, the “NR2A internalization in Src+/- mice upon ethanol” value ([1]; 100 mM ethanol, 15 min, slices from Src+/- mice, NR2A internalized under basal conditions) was “no additional changes” and the “surface expression of the NR2A subunit at lower ethanol concentrations” value ([1]; ethanol as low as 25 mM, 15 min, hippocampal slices) was “reduction”. The “association of adaptin β2 with NR2A and vice-versa” value [2] was “significantly increased”, the “internalized pool of NR2A” value (NR2A) was “increase” and the “increase of Ras-GTP levels over the control” value (Ras) was “at least 2 fold”. For the same compound, the “inhibition of NMDAR-mediated fEPSPs” value (NMDAR) was 47+8%, the “interaction between TrkB and adaptin β2” value (adaptin β2 with TrkB) was “no change” and the “interaction between GluR1 and adaptin β2” value [3] was “no change”. For the same compound, the “decrease in the levels of active phosphorylated Src” value (Src kinase) was “approximately 40%”, the “surface expression of the GluR1 subunit” value [4] was “no change” and the “surface expression of the NR1 subunit” value (NR1 subunit of the NMDAR) was “no change”. The “membranal localization of the NR2B subunit” value (NR2B subunit) was “did not alter”.
